Measurements reported in PubChem BioAssay (NCI).
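Method: 48-hour compound exposure of cells in 96-well plates, five concentrations, linear interpolation of endpoints. TGI denotes the concentration required for complete inhibition of growth.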

Assays:
Assay in all cases: NCI tumour cell line growth inhibition, 48 h
HCC-2998 colon = tested on: HCC-2998 colon
786-0 renal = tested on: 786-0 renal
A549 NSCLC = tested on: A549 NSCLC
OVCAR-5 ovarian = tested on: OVCAR-5 ovarian
ACHN renal = tested on: ACHN renal
SK-OV-3 ovarian = tested on: SK-OV-3 ovarian
DLD-1 colon = tested on: DLD-1 colon
SW-620 colon = tested on: SW-620 colon
OVCAR-3 ovarian = tested on: OVCAR-3 ovarian
A498 renal = tested on: A498 renal
HL-60(TB) leukemia = tested on: HL-60(TB) leukemia
HOP-18 NSCLC = tested on: HOP-18 NSCLC
KM20L2 colon = tested on: KM20L2 colon
HCT-116 colon = tested on: HCT-116 colon
UACC-257 melanoma = tested on: UACC-257 melanoma
UO-31 renal = tested on: UO-31 renal
TK-10 renal = tested on: TK-10 renal
SNB-19 CNS = tested on: SNB-19 CNS
OVCAR-8 ovarian = tested on: OVCAR-8 ovarian
M19-MEL melanoma = tested on: M19-MEL melanoma
HT29 colon = tested on: HT29 colon
UACC-62 melanoma = tested on: UACC-62 melanoma
HCT-15 colon = tested on: HCT-15 colon
DMS 114 small cell lung = tested on: DMS 114 small cell lung
M14 melanoma = tested on: M14 melanoma
RPMI-8226 leukemia = tested on: RPMI-8226 leukemia
MALME-3M melanoma = tested on: MALME-3M melanoma
SF-539 CNS = tested on: SF-539 CNS
NCI-H23 lung = tested on: NCI-H23 lung
DMS 273 small cell lung = tested on: DMS 273 small cell lung
K-562 leukemia = tested on: K-562 leukemia
SNB-75 CNS = tested on: SNB-75 CNS
COLO 205 colon = tested on: COLO 205 colon
MOLT-4 leukemia = tested on: MOLT-4 leukemia
OVCAR-4 ovarian = tested on: OVCAR-4 ovarian
LOX IMVI melanoma = tested on: LOX IMVI melanoma
NCI-H522 lung = tested on: NCI-H522 lung
KM12 colon = tested on: KM12 colon
HOP-92 NSCLC = tested on: HOP-92 NSCLC
IGROV1 ovarian = tested on: IGROV1 ovarian
CCRF-CEM leukemia = tested on: CCRF-CEM leukemia
EKVX NSCLC = tested on: EKVX NSCLC
SF-295 CNS = tested on: SF-295 CNS
RXF 393 renal = tested on: RXF 393 renal
SN12C renal = tested on: SN12C renal
SNB-78 CNS = tested on: SNB-78 CNS
SK-MEL-2 melanoma = tested on: SK-MEL-2 melanoma
SK-MEL-28 melanoma = tested on: SK-MEL-28 melanoma
U251 CNS = tested on: U251 CNS
SF-268 CNS = tested on: SF-268 CNS
LXFL 529 NSCLC = tested on: LXFL 529 NSCLC
HOP-62 NSCLC = tested on: HOP-62 NSCLC
NCI-H460 lung = tested on: NCI-H460 lung
CAKI-1 renal = tested on: CAKI-1 renal
SR leukemia = tested on: SR leukemia
SK-MEL-5 melanoma = tested on: SK-MEL-5 melanoma
NCI-H226 lung = tested on: NCI-H226 lung

Measured: TGI

COc1cc(C(=O)NO)ccc1O
> 100 µM: HCC-2998 colon | 786-0 renal | A549 NSCLC | OVCAR-5 ovarian | ACHN renal | SK-OV-3 ovarian | DLD-1 colon | SW-620 colon | OVCAR-3 ovarian | A498 renal | HL-60(TB) leukemia | HOP-18 NSCLC | KM20L2 colon | HCT-116 colon | UACC-257 melanoma | UO-31 renal | TK-10 renal | SNB-19 CNS | OVCAR-8 ovarian | M19-MEL melanoma | HT29 colon | UACC-62 melanoma | HCT-15 colon | DMS 114 small cell lung | M14 melanoma | RPMI-8226 leukemia | MALME-3M melanoma | SF-539 CNS | NCI-H23 lung | DMS 273 small cell lung | K-562 leukemia | SNB-75 CNS | COLO 205 colon | MOLT-4 leukemia | OVCAR-4 ovarian | LOX IMVI melanoma | NCI-H522 lung | KM12 colon | HOP-92 NSCLC | IGROV1 ovarian | CCRF-CEM leukemia | EKVX NSCLC | SF-295 CNS | RXF 393 renal | SN12C renal | SNB-78 CNS | SK-MEL-2 melanoma | SK-MEL-28 melanoma | U251 CNS | SF-268 CNS | LXFL 529 NSCLC | HOP-62 NSCLC | NCI-H460 lung

Cc1ccccc1-n1c(=O)sc2c(=O)n(-c3ccccc3)c(=S)[nH]c21
> 100 µM: HCC-2998 colon | 786-0 renal | A549 NSCLC | OVCAR-5 ovarian | ACHN renal | SK-OV-3 ovarian | DLD-1 colon | SW-620 colon | OVCAR-3 ovarian | A498 renal | HL-60(TB) leukemia | HOP-18 NSCLC | KM20L2 colon | HCT-116 colon | UACC-257 melanoma | UO-31 renal | SNB-19 CNS | OVCAR-8 ovarian | M19-MEL melanoma | HT29 colon | UACC-62 melanoma | HCT-15 colon | DMS 114 small cell lung | M14 melanoma | RPMI-8226 leukemia | MALME-3M melanoma | SF-539 CNS | NCI-H23 lung | DMS 273 small cell lung | K-562 leukemia | CAKI-1 renal | SNB-75 CNS | SR leukemia | COLO 205 colon | MOLT-4 leukemia | OVCAR-4 ovarian | SK-MEL-5 melanoma | NCI-H522 lung | KM12 colon | HOP-92 NSCLC | IGROV1 ovarian | CCRF-CEM leukemia | EKVX NSCLC | SF-295 CNS | RXF 393 renal | SN12C renal | SNB-78 CNS | SK-MEL-2 melanoma | NCI-H226 lung | SK-MEL-28 melanoma | U251 CNS | SF-268 CNS | LXFL 529 NSCLC | HOP-62 NSCLC | NCI-H460 lung
